Values of other authors as cited in patent publication US20180125800A1, “Stable Formulation for Parenteral Administration of Tapentadol” (Gruenenthal GmbH, priority 2015, published 2018).

Settings: more pronounced at higher pH values

## CC[C@@H](c1cccc(O)c1)[C@@H](C)CN(C)C [Tapentadol, (1R,2R)-3-(3-dimethylamino-1-ethyl-2-methyl-propyl)-phenol]
  antimicrobial properties: exhibits antimicrobial properties
